The values that follow come from patent US8106197B2, “Aminoheteroaryl compounds as protein kinase inhibitors” (Pfizer Inc., priority 2003, dated 2012).

What is called inhibition is the change of the read-out against control, counted positive when it falls.

For this assay, the target named is T1, HGFR (Homo sapiens, UniProt P08581).
T1 construct: purchased Upstate 14-526
The experiment in a line: HGFR continuous-coupled spectrophotometric assay. Type of assay: biochemical. Particulars: Table 6; percent c-MET inhibition at 1 μM; read-out: % inhibition.

T1 sequence (P08581 974-1390 limits assumed): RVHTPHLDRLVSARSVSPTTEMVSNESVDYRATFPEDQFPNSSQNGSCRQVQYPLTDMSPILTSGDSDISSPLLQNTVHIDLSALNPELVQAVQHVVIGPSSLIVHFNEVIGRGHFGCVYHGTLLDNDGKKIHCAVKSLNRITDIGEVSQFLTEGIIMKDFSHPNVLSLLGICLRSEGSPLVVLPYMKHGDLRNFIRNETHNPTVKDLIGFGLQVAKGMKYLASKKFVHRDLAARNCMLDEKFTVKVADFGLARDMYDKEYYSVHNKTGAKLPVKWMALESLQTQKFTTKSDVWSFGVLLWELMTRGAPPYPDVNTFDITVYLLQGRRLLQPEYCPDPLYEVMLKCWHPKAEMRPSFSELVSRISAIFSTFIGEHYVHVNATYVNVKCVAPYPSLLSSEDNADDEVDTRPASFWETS

Take `Nc1ncc(C(=O)NCCc2c[nH]cn2)cc1OCc1c(Cl)cccc1Cl`: the inhibition at 1 µM worked out at 29%.

Turning to `CN(C)c1ccc(CNC(=O)c2cnc(N)c(OCc3c(Cl)cccc3Cl)c2)cc1`, the inhibition at 1 µM was found to be 30%.

As for `Nc1ncc(C(=O)NCCc2ccc(S(N)(=O)=O)cc2)cc1OCc1c(Cl)cccc1Cl`, the inhibition at 1 µM is 30%.

For the compound `NC(=O)C1CCCN(C(=O)c2cnc(N)c(OCc3c(Cl)cccc3Cl)c2)C1` (stereo not shown), the inhibition at 1 µM is 39%.

Consider `Nc1ncc(C(=O)NC2CCSC2=O)cc1OCc1c(Cl)cccc1Cl` (stereo not shown), for which the inhibition at 1 µM was 35%.

On to `CC(=O)NCCNC(=O)c1cnc(N)c(OCc2c(Cl)cccc2Cl)c1`, for which the inhibition at 1 µM stood at 35%.

Turning to `CN(C)CC(C)(C)CNC(=O)c1cnc(N)c(OCc2c(Cl)cccc2Cl)c1`, the inhibition at 1 µM was 38%.

Consider `Cc1ccc(N2CCN(CCCCNC(=O)c3cnc(N)c(OCc4c(Cl)cccc4Cl)c3)CC2)cc1`, for which the inhibition at 1 µM was determined as 15%.

In the case of `Nc1ncc(C(=O)N2CCS(=O)(=O)CC2)cc1OCc1c(Cl)cccc1Cl`, the inhibition at 1 µM came out at 10%.

With `C[C@@H]1CCC[C@H](C)N1CCNC(=O)c1cnc(N)c(OCc2c(Cl)cccc2Cl)c1`, the inhibition at 1 µM amounted to 2%.

On to `Nc1ncc(C(=O)N[C@@H]2CCC[C@H]2OCc2ccccc2)cc1OCc1c(Cl)cccc1Cl`, for which the inhibition at 1 µM is 16%.

For the compound `Nc1ncc(C(=O)NC[C@]2(O)CC[C@H](c3ccccc3)CC2)cc1OCc1c(Cl)cccc1Cl`, the inhibition at 1 µM was determined as 15%.

Take `Nc1ncc(C(=O)NCCc2cccc(O)c2)cc1OCc1c(Cl)cccc1Cl`: the inhibition at 1 µM came out at 17%.

Regarding `N#CCCN1CCN(C(=O)c2cnc(N)c(OCc3c(Cl)cccc3Cl)c2)CC1`, the inhibition at 1 µM worked out at 19%.

For `Nc1ncc(C(=O)NCc2cc3cc[nH]c3cn2)cc1OCc1c(Cl)cccc1Cl`, the inhibition at 1 µM came out at 28%.

Take `Nc1ncc(C(=O)NCC(O)CN2CCC(Cc3ccccc3)CC2)cc1OCc1c(Cl)cccc1Cl` (stereo not shown): the inhibition at 1 µM amounted to 32%.

Take `Nc1ncc(C(=O)N2CCCN(Cc3ccc(F)cc3)CC2)cc1OCc1c(Cl)cccc1Cl`: the inhibition at 1 µM is 26%.

Consider `Cc1ccc(F)c(CNC(=O)c2cnc(N)c(OCc3c(Cl)cccc3Cl)c2)c1F`, for which the inhibition at 1 µM came to 31%.

`Nc1ncc(C(=O)NCc2c(F)cccc2F)cc1OCc1c(Cl)cccc1Cl`: the inhibition at 1 µM was 32%.

As for `Nc1ncc(C(=O)N2CCN(CC(=O)Nc3ccccn3)CC2)cc1OCc1c(Cl)cccc1Cl`, the inhibition at 1 µM stood at 56%.

Regarding `Nc1ncc(C(=O)N2CCN(Cc3cccc4ccccc34)CC2)cc1OCc1c(Cl)cccc1Cl`, the inhibition at 1 µM was determined as 26%.

As for `CCS(=O)(=O)N1CCN(C(=O)c2cnc(N)c(OCc3c(Cl)cccc3Cl)c2)CC1`, the inhibition at 1 µM came out at 22%.

`Nc1ncc(C(=O)N2CCC(N3CCCCC3=O)CC2)cc1OCc1c(Cl)cccc1Cl`: the inhibition at 1 µM turned out to be 26%.

With `Nc1ncc(C(=O)N2CCC3(CCNC3=O)CC2)cc1OCc1c(Cl)cccc1Cl`, the inhibition at 1 µM is 27%.

As for `Nc1ncc(C(=O)N2CCNC(=O)CC2)cc1OCc1c(Cl)cccc1Cl`, the inhibition at 1 µM stood at 31%.

With `Nc1ncc(C(=O)N2CCCC(C(=O)N3CCCC3)C2)cc1OCc1c(Cl)cccc1Cl` (stereo not shown), the inhibition at 1 µM stood at 47%.

As to `Nc1ncc(C(=O)N2CCCC(C(=O)N3CCOCC3)C2)cc1OCc1c(Cl)cccc1Cl` (stereo not shown), the inhibition at 1 µM came out at 21%.

`COCCNC(=O)C1CCCN(C(=O)c2cnc(N)c(OCc3c(Cl)cccc3Cl)c2)C1` (stereo not shown): the inhibition at 1 µM stood at 20%.

As to `CC(C)(O)c1ccc(CNC(=O)c2cnc(N)c(OCc3c(Cl)cccc3Cl)c2)cc1`, the inhibition at 1 µM was 24%.

In the case of `Nc1ncc(C(=O)N2CCCC2c2ccncc2)cc1OCc1c(Cl)cccc1Cl` (stereo not shown), the inhibition at 1 µM is 19%.

With `Nc1ncc(C(=O)NCCc2nc3ccccc3s2)cc1OCc1c(Cl)cccc1Cl`, the inhibition at 1 µM stood at 26%.

Turning to `Nc1ncc(C(=O)NCC2=CSC3=NCCN23)cc1OCc1c(Cl)cccc1Cl`, the inhibition at 1 µM is 99%.

For `Nc1ncc(C(=O)NC2CCCNC2=O)cc1OCc1c(Cl)cccc1Cl` (stereo not shown), the inhibition at 1 µM was determined as 16%.

Turning to `Cc1cc2cc(CNC(=O)c3cnc(N)c(OCc4c(Cl)cccc4Cl)c3)ccc2[nH]1`, the inhibition at 1 µM amounted to 20%.

In the case of `CN(C)C(CNC(=O)c1cnc(N)c(OCc2c(Cl)cccc2Cl)c1)c1cccnc1` (stereo not shown), the inhibition at 1 µM is 18%.

Turning to `CS(=O)(=O)C1CCN(C(=O)c2cnc(N)c(OCc3c(Cl)cccc3Cl)c2)C1` (stereo not shown), the inhibition at 1 µM was determined as 23%.

Turning to `CN(CCS(C)(=O)=O)C(=O)c1cnc(N)c(OCc2c(Cl)cccc2Cl)c1`, the inhibition at 1 µM amounted to 26%.

With `Nc1ncc(C(=O)NCCC2CCOCC2)cc1OCc1c(Cl)cccc1Cl`, the inhibition at 1 µM was determined as 31%.

Consider `CS(=O)(=O)CCN1CCN(C(=O)c2cnc(N)c(OCc3c(Cl)cccc3Cl)c2)CC1`, for which the inhibition at 1 µM amounted to 25%.

Turning to `Nc1ncc(C(=O)NC(CO)c2cccnc2)cc1OCc1c(Cl)cccc1Cl` (stereo not shown), the inhibition at 1 µM came out at 22%.

For `Nc1ncc(C(=O)N2CCN(CC(=O)N3CCCCC3)CC2)cc1OCc1c(Cl)cccc1Cl`, the inhibition at 1 µM is 24%.

As to `Nc1ncc(C(=O)N2CCC(Cc3ccc(F)cc3)CC2)cc1OCc1c(Cl)cccc1Cl`, the inhibition at 1 µM stood at 41%.

Regarding `Nc1ncc(C(=O)NCc2ncccc2O)cc1OCc1c(Cl)cccc1Cl`, the inhibition at 1 µM was found to be 24%.

Turning to `CCCCOc1ccc(CNC(=O)c2cnc(N)c(OCc3c(Cl)cccc3Cl)c2)cc1`, the inhibition at 1 µM was 18%.

Turning to `Nc1ncc(C(=O)NCc2ccc(OC(F)F)cc2)cc1OCc1c(Cl)cccc1Cl`, the inhibition at 1 µM is 26%.

For the compound `COc1ccc(C(CCO)NC(=O)c2cnc(N)c(OCc3c(Cl)cccc3Cl)c2)cc1` (stereo not shown), the inhibition at 1 µM was found to be 22%.

Consider `Nc1ncc(C(=O)N2CCNC(=O)C2)cc1OCc1c(Cl)cccc1Cl`, for which the inhibition at 1 µM stood at 22%.

In the case of `Nc1ncc(C(=O)NCc2c(F)cccc2C(F)(F)F)cc1OCc1c(Cl)cccc1Cl`, the inhibition at 1 µM came out at 33%.

As to `Nc1ncc(C(=O)N2CCCC(F)(F)C2)cc1OCc1c(Cl)cccc1Cl`, the inhibition at 1 µM was 16%.

Consider `Nc1ncc(C(=O)NCc2ccc[nH]c2=O)cc1OCc1c(Cl)cccc1Cl`, for which the inhibition at 1 µM was found to be 16%.

As for `Cc1ccc2c(c1)C(NC(=O)c1cnc(N)c(OCc3c(Cl)cccc3Cl)c1)CCO2` (stereo not shown), the inhibition at 1 µM was found to be 17%.

With `CCN1CCCC(NC(=O)c2cnc(N)c(OCc3c(Cl)cccc3Cl)c2)C1` (stereo not shown), the inhibition at 1 µM came to 19%.

As for `Nc1ncc(C(=O)N2CCC(COCc3ccccc3F)CC2)cc1OCc1c(Cl)cccc1Cl`, the inhibition at 1 µM was determined as 10%.

`Nc1ncc(C(=O)NCCC2CCC(=O)N2CCc2ccc(O)cc2)cc1OCc1c(Cl)cccc1Cl` (stereo not shown): the inhibition at 1 µM is 16%.

Turning to `Nc1ncc(C(=O)N2CCC(Cc3cnccn3)CC2)cc1OCc1c(Cl)cccc1Cl`, the inhibition at 1 µM amounted to 72%.

Take `Nc1ncc(C(=O)N2CCC(Cc3cccc(CO)c3)CC2)cc1OCc1c(Cl)cccc1Cl`: the inhibition at 1 µM was determined as 11%.

Turning to `NC(=O)c1ccc(CC2CCN(C(=O)c3cnc(N)c(OCc4c(Cl)cccc4Cl)c3)CC2)cc1`, the inhibition at 1 µM stood at 12%.

On to `Nc1ncc(C(=O)N2CCC3(CC2)CC(N2CCNC(=O)C2)CO3)cc1OCc1c(Cl)cccc1Cl` (stereo not shown), for which the inhibition at 1 µM was determined as 17%.

Turning to `CCN(CC)CC1(O)CCN(C(=O)c2cnc(N)c(OCc3c(Cl)cccc3Cl)c2)CC1`, the inhibition at 1 µM was 71%.

Take `Nc1ncc(C(=O)N2CCC3(CC2)CC(N2CCC(O)CC2)CO3)cc1OCc1c(Cl)cccc1Cl` (stereo not shown): the inhibition at 1 µM was 28%.

For the compound `CN(CCC1CCC(=O)N1CC(F)(F)F)C(=O)c1cnc(N)c(OCc2c(Cl)cccc2Cl)c1` (stereo not shown), the inhibition at 1 µM came to 25%.

Regarding `Nc1ncc(C(=O)N2CCC(O)(CCc3ccncc3)CC2)cc1OCc1c(Cl)cccc1Cl`, the inhibition at 1 µM came out at 25%.

Consider `Nc1ncc(C(=O)NCc2noc(C(=O)N3CCC(CO)CC3)n2)cc1OCc1c(Cl)cccc1Cl`, for which the inhibition at 1 µM was found to be 26%.

Take `Nc1ncc(C(=O)N2CCCC(Cc3ncccn3)C2)cc1OCc1c(Cl)cccc1Cl` (stereo not shown): the inhibition at 1 µM was 25%.

As for `Nc1ncc(C(=O)N2CCC3(CC2)CC3C(=O)N2CCCCC2)cc1OCc1c(Cl)cccc1Cl` (stereo not shown), the inhibition at 1 µM was determined as 26%.

With `Cc1noc([C@H]2CC[C@H](CNC(=O)c3cnc(N)c(OCc4c(Cl)cccc4Cl)c3)CC2)n1`, the inhibition at 1 µM is 3%.

Regarding `Nc1ncc(C(=O)NCc2noc(C(=O)N3CC[C@H](O)C3)n2)cc1OCc1c(Cl)cccc1Cl`, the inhibition at 1 µM is 26%.

For `Nc1ncc(C(=O)N2CCc3nnc(CCN4CCOCC4)n3CC2)cc1OCc1c(Cl)cccc1Cl`, the inhibition at 1 µM came to 27%.

In the case of `Cc1nc[nH]c1CN1CCC2(CC1)CC(NC(=O)c1cnc(N)c(OCc3c(Cl)cccc3Cl)c1)CO2` (stereo not shown), the inhibition at 1 µM was found to be 30%.

For `CCC(CC)CN1CCC2(CC1)CC(NC(=O)c1cnc(N)c(OCc3c(Cl)cccc3Cl)c1)CO2` (stereo not shown), the inhibition at 1 µM was determined as 74%.

As for `COCC1CN(CC(N)=O)CCN(C(=O)c2cnc(N)c(OCc3c(Cl)cccc3Cl)c2)C1` (stereo not shown), the inhibition at 1 µM came out at 23%.

With `Nc1ncc(C(=O)NC2COC3(CCN(c4ncccn4)CC3)C2)cc1OCc1c(Cl)cccc1Cl` (stereo not shown), the inhibition at 1 µM was 21%.

Consider `Cc1nc(CCNC(=O)c2cnc(N)c(OCc3c(Cl)cccc3Cl)c2)c[nH]1`, for which the inhibition at 1 µM stood at 23%.

For `CCCN(CCO)C1CCCN(C(=O)c2cnc(N)c(OCc3c(Cl)cccc3Cl)c2)CC1` (stereo not shown), the inhibition at 1 µM was determined as 17%.

In the case of `Nc1ncc(C(=O)N2CCCC(N3CCOCC3)CC2)cc1OCc1c(Cl)cccc1Cl` (stereo not shown), the inhibition at 1 µM came out at 18%.

Consider `Nc1ncc(C(=O)NC2COC3(CCN(Cc4ccncc4)CC3)C2)cc1OCc1c(Cl)cccc1Cl` (stereo not shown), for which the inhibition at 1 µM turned out to be 20%.

Turning to `Nc1ncc(C(=O)N2CCC(O)(CN3CCCC3=O)C2)cc1OCc1c(Cl)cccc1Cl` (stereo not shown), the inhibition at 1 µM came to 20%.

Turning to `CC(C)CCNC(=O)C1CC12CCN(C(=O)c1cnc(N)c(OCc3c(Cl)cccc3Cl)c1)CC2` (stereo not shown), the inhibition at 1 µM came out at 21%.

`CN(CCc1ccccn1)CC1(O)CCN(C(=O)c2cnc(N)c(OCc3c(Cl)cccc3Cl)c2)C1` (stereo not shown): the inhibition at 1 µM was found to be 18%.

Turning to `Cc1cc(CCC2COC3(CCN(C(=O)c4cnc(N)c(OCc5c(Cl)cccc5Cl)c4)CC3)C2)no1` (stereo not shown), the inhibition at 1 µM is 19%.

As to `Nc1ncc(C(=O)N2CCCC(N3CCC(CO)CC3)CC2)cc1OCc1c(Cl)cccc1Cl` (stereo not shown), the inhibition at 1 µM came out at 20%.

`Nc1ncc(C(=O)N2CCCC(O)(COc3cccc(F)c3)C2)cc1OCc1c(Cl)cccc1Cl` (stereo not shown): the inhibition at 1 µM was 36%.
